Laboratory results taken from patent US12600726B2, “Antagonists of the muscarinic acetylcholine receptor M4” (Vanderbilt University, priority 2017, dated 2026).

Experiments:
[1] = target: T1, Rat M4 (Rattus norvegicus, UniProt P08485); experiment: mAChR M4 cell-based functional calcium flux assay (rat M4/Gqi5/CHO cells); conditions: for Emin (rat M4): % ACh maximum at 30 μM
T1 construct: expressed in transfected cells; host or cells: CHO-K1 (ATCC), stably expressing M4 and Gqi5
T1 sequence (P08485 1-478): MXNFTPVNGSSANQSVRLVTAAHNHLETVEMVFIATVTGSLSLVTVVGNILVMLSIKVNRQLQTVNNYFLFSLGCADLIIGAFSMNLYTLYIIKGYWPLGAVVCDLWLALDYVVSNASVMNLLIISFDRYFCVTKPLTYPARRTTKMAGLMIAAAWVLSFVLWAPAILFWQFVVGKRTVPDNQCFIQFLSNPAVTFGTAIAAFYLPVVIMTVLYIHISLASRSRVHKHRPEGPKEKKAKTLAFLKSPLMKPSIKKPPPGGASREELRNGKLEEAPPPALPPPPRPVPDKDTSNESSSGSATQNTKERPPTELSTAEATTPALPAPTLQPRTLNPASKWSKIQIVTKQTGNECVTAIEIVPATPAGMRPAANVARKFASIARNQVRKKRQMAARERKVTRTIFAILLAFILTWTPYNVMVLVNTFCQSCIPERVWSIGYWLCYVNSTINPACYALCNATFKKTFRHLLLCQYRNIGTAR
Method in brief: (§1)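 CHO-K1 cells stably co-expressing M4 of the given species with chimeric Gqi5 were loaded with Fluo-4 AM and read for calcium flux. Compounds (10-point, 1:3 dilutions) were added first, followed by an acetylcholine EC20 at 143 s and an EC80 at 268 s. IC50 reflects the concentration-dependent fall in the EC80 response, fitted with a four-parameter logistic.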

[2] = target: T2, Human M4 (Homo sapiens, UniProt P08173); experiment: mAChR M4 cell-based functional calcium flux assay (human M4/Gqi5/CHO cells); conditions: for Emin (human M4): % ACh maximum at 30 μM; for IC50: decrease of the response to an EC80 concentration of acetylcholine
T2 construct: expressed in transfected cells; host or cells: CHO-K1 (ATCC), stably expressing M4 and Gqi5
T2 sequence (P08173 1-479): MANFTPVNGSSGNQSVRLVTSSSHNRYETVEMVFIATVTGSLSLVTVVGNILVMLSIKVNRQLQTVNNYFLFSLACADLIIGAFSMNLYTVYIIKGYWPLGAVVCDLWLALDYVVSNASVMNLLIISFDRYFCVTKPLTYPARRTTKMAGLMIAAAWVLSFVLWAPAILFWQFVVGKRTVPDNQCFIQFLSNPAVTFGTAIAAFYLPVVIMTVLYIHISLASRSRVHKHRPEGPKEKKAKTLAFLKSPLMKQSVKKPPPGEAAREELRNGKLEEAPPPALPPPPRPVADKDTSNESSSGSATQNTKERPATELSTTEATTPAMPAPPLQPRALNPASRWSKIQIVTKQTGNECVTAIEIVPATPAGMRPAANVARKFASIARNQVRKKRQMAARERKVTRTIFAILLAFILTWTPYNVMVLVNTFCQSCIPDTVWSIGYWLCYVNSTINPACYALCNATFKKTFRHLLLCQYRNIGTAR
Method in brief: as §1

[3] = decrease of the response to an EC80 concentration of acetylcholine
[4] = cells printed in μM, decrease of the EC80 acetylcholine response

SMILES | Emin (rat M4) [1] | IC50 [1, 3] | Emin (human M4) [2] | IC50 [2] | IC50 [1, 4]
Cc1nn(C)cc1-c1ccc(NCC2CC23CCN(CC(c2ccccc2)c2ccccc2)CC3)nn1 (stereo not shown) [Compound 59, 6-(1,3-dimethylpyrazol-4-yl)-N-[[6-(2,2-diphenylethyl)-6-azaspiro[2.5]octan-2-yl]methyl]pyridazin-3-amine] | 4.58% | 1.88 µM | 3.31% | 543 nM | 
CC(C)(C)CCN1CCC2(CC1)CC2CNc1ccc(-c2ccc(F)cc2Cl)nn1 (stereo not shown) [Compound 24, 6-(2-chloro-4-fluoro-phenyl)-N-[[6-(3,3-dimethylbutyl)-6-azaspiro[2.5]octan-2-yl]methyl]pyridazin-3-amine] | 3.19% | 0.159 µM | 2.81% | 42.8 nM | 
Cn1nccc1-c1ccc(NCC2CC23CCN(CCC(C)(C)C)CC3)nn1 (stereo not shown) [Compound 38, N-[[6-(3,3-dimethylbutyl)-6-azaspiro[2.5]octan-2-yl]methyl]-6-(2-methylpyrazol-3-yl)pyridazin-3-amine] | 4.05% | 0.024 µM | 3.30% | 3.71 nM | 
CC(CN1CCC2(CC1)CC2C(=O)Nc1ccc(-c2cc(F)ccc2Cl)nn1)C(C)(C)C (stereo not shown) [Compound 19, N-[6-(2-chloro-5-fluoro-phenyl)pyridazin-3-yl]-6-(2,3,3-trimethylbutyl)-6-azaspiro[2.5]octane-2-carboxamide] | 34.9% |  | 6.57% | 5060 nM | > 10 µM
CC(C)(C)CCN1CCC2(CC1)CC2CNc1ccc(N2CCCC2)nn1 (stereo not shown) [Compound 81, N-[[6-(3,3-dimethylbutyl)-6-azaspiro[2.5]octan-2-yl]methyl]-6-pyrrolidin-1-yl-pyridazin-3-amine] | 4% | 0.307 µM | 4% | 85.2 nM | 
CC(=O)Nc1ccc(-c2ccc(NC[C@H]3CC34CCN(CCC(C)(C)C)CC4)nn2)cc1 [Compound 124, N-[4-[6-[[(2S)-6-(3,3-dimethylbutyl)-6-azaspiro[2.5]octan-2-yl]methylamino]pyridazin-3-yl]phenyl]acetamide] | 4% | 0.0563 µM | 4% | 34.3 nM | 
Cc1nn(C)cc1-c1ccc(NCC2CC23CCN(C[C@H]2C[C@@H]4CC[C@H]2O4)CC3)nn1 (stereo partly drawn) [Compound 3, N-((6-(((1R,2R,4S)-7-Oxabicyclo[2.2.1]heptan-2-yl)methyl)-6-azaspiro[2.5]octan-1-yl)methyl)-6-(1,3-dimethyl-1H-pyrazol-4-yl)pyridazin-3-amine] | 7.69% | 0.742 µM | 3.52% | 43.6 nM | 
CC(C)(C)CCN1CCC2(CC1)C[C@@H]2CNc1ccc(-c2cc(F)ccc2Cl)nn1 [Compound 66, (S)-6-(2-chloro-5-fluoro-phenyl)-N-[[6-(3,3-dimethylbutyl)-6-azaspiro[2.5]octan-2-yl]methyl]pyridazin-3-amine] | 3.95% | 0.151 µM | 3.50% | 9.91 nM | 
CC(C)(C)CCN1CCC2(CC1)C[C@H]2CNc1ccc(-c2cc(F)ccc2Cl)nn1 [Compound 64, (R)-6-(2-chloro-5-fluoro-phenyl)-N-[[6-(3,3-dimethylbutyl)-6-azaspiro[2.5]octan-2-yl]methyl]pyridazin-3-amine] | 3.68% | 0.0332 µM | 2.90% | 11 nM | 
Cc1nn(C)cc1-c1ccc(NCC2CC23CCN(CC24CC5CC(CC(C5)C2)C4)CC3)nn1 (stereo not shown) [Compound 57, N-[[6-(1-adamantylmethyl)-6-azaspiro[2.5]octan-2-yl]methyl]-6-(1,3-dimethylpyrazol-4-yl)pyridazin-3-amine] | 3.84% | 0.534 µM | 3.30% | 69.1 nM | 
CC(=O)Nc1ccc(-c2nnc(NCC3CC34CCN(CCC(C)(C)C)CC4)c(C)c2C)cc1 (stereo not shown) [Compound 116, N-[4-[6-[[6-(3,3-dimethylbutyl)-6-azaspiro[2.5]octan-2-yl]methylamino]-4,5-dimethyl-pyridazin-3-yl]phenyl]acetamide] | 4% | 0.015 µM | 5% | 11.9 nM | 
CC(C)(C)CCN1CCC2(CC1)CC2CNc1ccc(-c2ccc3ccccc3c2)nn1 (stereo not shown) [Compound 47, N-[[6-(3,3-dimethylbutyl)-6-azaspiro[2.5]octan-2-yl]methyl]-6-(2-naphthyl)pyridazin-3-amine] | 2.90% | 0.39 µM | 2.97% | 208 nM | 
Fc1ccc(Cl)c(-c2ccc(NCC3CC34CCN(CC35CC6CC(CC(C6)C3)C5)CC4)nn2)c1 (stereo not shown) [Compound 16, N-[[6-(1-adamantylmethyl)-6-azaspiro[2.5]octan-2-yl]methyl]-6-(2-chloro-5-fluoro-phenyl)pyridazin-3-amine] | 3.13% | 0.496 µM | 2.44% | 94.1 nM | 
CCCC(C)CN1CCC2(CC1)CC2CNc1ccc(-c2cn(C)nc2C)nn1 (stereo not shown) [Compound 52, 6-(1,3-dimethylpyrazol-4-yl)-N-[[6-(2-methylpentyl)-6-azaspiro[2.5]octan-2-yl]methyl]pyridazin-3-amine] | 5.80% | 0.578 µM | 3.9% | 18.6 nM | 
CC(CN1CCC2(CC1)CC2CNc1ccc(-c2cc(F)ccc2Cl)nn1)C(C)(C)C (stereo not shown) [Compound 12, 6-(2-chloro-5-fluoro-phenyl)-N-[[6-(2,3,3-trimethylbutyl)-6-azaspiro[2.5]octan-2-yl]methyl]pyridazin-3-amine] | 2.40% | 0.22 µM | 2.15% | 39.3 nM | 
CC(C)(C)CCN1CCC2(CC1)CC2CNc1ccc(-c2ccc3ccncc3c2)nn1 (stereo not shown) [Compound 44, N-[[6-(3,3-dimethylbutyl)-6-azaspiro[2.5]octan-2-yl]methyl]-6-(7-isoquinolyl)pyridazin-3-amine] | 3.41% | 0.0478 µM | 2.73% | 16 nM | 
Cc1cnn(C)c1-c1ccc(N(C)CC2CC23CCN(CCC(C)(C)C)CC3)nn1 (stereo not shown) [Compound 76, 6-(1,4-dimethyl-1H-pyrazol-5-yl)-N-((6-(3,3-dimethylbutyl)-6-azaspiro[2.5]octan-1-yl)methyl)-N-methylpyridazin-3-amine] | 7% | 0.693 µM | 4% | 99.6 nM | 
Cc1nn(C)cc1-c1ccc(NCC2CC23CCN(Cc2ncccc2C(F)(F)F)CC3)nn1 (stereo not shown) [Compound 63, 6-(1,3-dimethylpyrazol-4-yl)-N-[[6-[[3-(trifluoromethyl)-2-pyridyl]methyl]-6-azaspiro[2.5]octan-2-yl]methyl]pyridazin-3-amine] | 19.9% |  | 4.53% | 537 nM | > 10 µM
CC(C)(C)CCN1CCC2(CC1)CC2CNc1ncc(-c2ccccc2)s1 (stereo not shown) [Compound 72, N-[[6-(3,3-dimethylbutyl)-6-azaspiro[2.5]octan-2-yl]methyl]-5-phenyl-thiazol-2-amine] | 4.86% | 0.779 µM | 4.42% | 1260 nM | 
Cc1noc(C)c1-c1ccc(NCC2CC23CCN(CCC(C)(C)C)CC3)nn1 (stereo not shown) [Compound 37, N-[[6-(3,3-dimethylbutyl)-6-azaspiro[2.5]octan-2-yl]methyl]-6-(3,5-dimethylisoxazol-4-yl)pyridazin-3-amine] | 4.23% | 0.0593 µM | 3.00% | 5.29 nM | 
CC(C)(C)CCN1CCC2(CC1)CC2CNc1ccc(-c2cccc(F)c2Cl)nn1 (stereo not shown) [Compound 41, 6-(2-chloro-3-fluoro-phenyl)-N-[[6-(3,3-dimethylbutyl)-6-azaspiro[2.5]octan-2-yl]methyl]pyridazin-3-amine] | 3.33% | 0.105 µM | 2.24% | 16 nM | 
O=C(Nc1ccc(-c2cc(F)ccc2Cl)nn1)C1CC12CCN(CC1CC3C=CC1C3)CC2 (stereo not shown) [Compound 18, 6-(5-bicyclo[2.2.1]hept-2-enylmethyl)-N-[6-(2-chloro-5-fluoro-phenyl)pyridazin-3-yl]-6-azaspiro[2.5]octane-2-carboxamide] | 4.72% | 3.09 µM | 3.46% | 870 nM | 
